Reference: ChEMBL document CHEMBL1201862, “PubChem BioAssay data set” (2004)
Calls of active or inactive are those of the source.

Tests used:
Fatty acid synthase [1] = molecular target: T1, Fatty acid synthase (Homo sapiens, UniProt P49327); assay: FAS thioesterase domain inhibitors, dose response, biochemical, endpoint fluorescence intensity, uHTS hits (AID 624327); assay type: functional;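 note: fluorescence from hydrolysis of an O-methyl fluorescein acyl ester substrate by the enzyme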
Fatty acid synthase [2] = molecular target: T1, Fatty acid synthase; assay: FAS thioesterase domain inhibitors, dose response, biochemical, kinetic fluorescence intensity (AID 624326); assay type: functional;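 note: rate of fluorescence rise from hydrolysis of a fluorogenic O-methyl fluorescein ester substrate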
[3] = molecular target: T2, Ubiquitin-conjugating enzyme E2 N (Homo sapiens, UniProt P61088); assay type: functional;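 note: Dose-response confirmation in a TR-FRET assay detecting UBC13-driven polyubiquitin chain formation, inhibition measured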
T2 sequence (P61088 whole entry): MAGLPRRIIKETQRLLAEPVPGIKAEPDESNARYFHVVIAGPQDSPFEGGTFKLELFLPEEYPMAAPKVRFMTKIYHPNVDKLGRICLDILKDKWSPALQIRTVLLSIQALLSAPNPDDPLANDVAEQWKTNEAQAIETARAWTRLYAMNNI

H9c2 = assay: cells; assay type: functional, cell-based; conditions: Rattus norvegicus, H9c2, Myocardium
[4] = C. albicans growth with fluconazole, confirmation, fluorescence, retest (AID 2467); assay type: functional, cell-based
[5] = NIH-3T3 fibroblast cytotoxicity, dose response, cytotoxicity control, cell-based, fluorescence, Alamar Blue, secondary assay (AID 2327); assay type: functional;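 note: NIH-3T3 mouse fibroblasts cultured with fluconazole at 8 µg/mL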
[6] = molecular target: T3, RNA-binding protein pos-1 (Caenorhabditis elegans, UniProt G5EF15); assay: inhibitors of POS-1/mex-3 RNA binding, dose response, biochemical, fluorescence polarization (AID 1964);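 note: purified POS-1 fused to maltose binding protein made in E. coli; potency of compounds blocking POS-1 binding to fluorescent RNA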
T3 sequence (G5EF15 whole entry): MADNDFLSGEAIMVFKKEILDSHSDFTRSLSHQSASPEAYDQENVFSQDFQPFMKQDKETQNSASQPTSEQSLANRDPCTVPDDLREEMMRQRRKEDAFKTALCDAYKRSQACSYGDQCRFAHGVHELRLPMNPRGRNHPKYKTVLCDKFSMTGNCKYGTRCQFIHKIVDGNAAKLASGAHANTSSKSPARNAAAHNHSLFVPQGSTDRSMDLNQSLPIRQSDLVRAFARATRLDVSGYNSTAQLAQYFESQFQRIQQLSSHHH

[7] = molecular target: T4, Zinc finger protein mex-5 (Caenorhabditis elegans, UniProt Q9XUB2); assay: MEX-5/TCR-2 RNA interaction inhibitors, dose response, biochemical, C. elegans, fluorescence polarization (AID 1960)
T4 sequence (Q9XUB2 whole entry): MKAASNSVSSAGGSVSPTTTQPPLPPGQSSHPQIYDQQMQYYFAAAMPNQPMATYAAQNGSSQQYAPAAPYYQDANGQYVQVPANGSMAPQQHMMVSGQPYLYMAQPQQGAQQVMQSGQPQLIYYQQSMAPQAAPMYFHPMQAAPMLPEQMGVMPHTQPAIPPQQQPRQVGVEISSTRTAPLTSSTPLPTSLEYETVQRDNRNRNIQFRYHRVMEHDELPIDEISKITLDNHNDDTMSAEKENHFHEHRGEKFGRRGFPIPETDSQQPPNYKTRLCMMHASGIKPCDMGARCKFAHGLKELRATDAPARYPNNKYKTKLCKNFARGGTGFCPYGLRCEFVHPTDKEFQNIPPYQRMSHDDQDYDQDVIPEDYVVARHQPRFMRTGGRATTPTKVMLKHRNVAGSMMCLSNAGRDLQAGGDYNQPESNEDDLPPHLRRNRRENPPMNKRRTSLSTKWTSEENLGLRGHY

[8] = molecular target: Heat shock protein HSP 90-alpha (Homo sapiens, UniProt P07900); assay type: functional, organism-based
Vero = assay: cells; assay type: functional; conditions: Chlorocebus sabaeus
Protein RecA = molecular target: T5, Protein RecA (Mycobacterium tuberculosis, UniProt P9WHJ3); assay: Fluorescence Cell-Free Homogeneous Dose Retest to Identify Inhibitors of RecA-Intein Splicing Activity. [Related pubchem assays (depositor defined):AID2097, AID2223, AID489010, AID492950]; assay type: functional
T5 sequence (P9WHJ3 whole entry): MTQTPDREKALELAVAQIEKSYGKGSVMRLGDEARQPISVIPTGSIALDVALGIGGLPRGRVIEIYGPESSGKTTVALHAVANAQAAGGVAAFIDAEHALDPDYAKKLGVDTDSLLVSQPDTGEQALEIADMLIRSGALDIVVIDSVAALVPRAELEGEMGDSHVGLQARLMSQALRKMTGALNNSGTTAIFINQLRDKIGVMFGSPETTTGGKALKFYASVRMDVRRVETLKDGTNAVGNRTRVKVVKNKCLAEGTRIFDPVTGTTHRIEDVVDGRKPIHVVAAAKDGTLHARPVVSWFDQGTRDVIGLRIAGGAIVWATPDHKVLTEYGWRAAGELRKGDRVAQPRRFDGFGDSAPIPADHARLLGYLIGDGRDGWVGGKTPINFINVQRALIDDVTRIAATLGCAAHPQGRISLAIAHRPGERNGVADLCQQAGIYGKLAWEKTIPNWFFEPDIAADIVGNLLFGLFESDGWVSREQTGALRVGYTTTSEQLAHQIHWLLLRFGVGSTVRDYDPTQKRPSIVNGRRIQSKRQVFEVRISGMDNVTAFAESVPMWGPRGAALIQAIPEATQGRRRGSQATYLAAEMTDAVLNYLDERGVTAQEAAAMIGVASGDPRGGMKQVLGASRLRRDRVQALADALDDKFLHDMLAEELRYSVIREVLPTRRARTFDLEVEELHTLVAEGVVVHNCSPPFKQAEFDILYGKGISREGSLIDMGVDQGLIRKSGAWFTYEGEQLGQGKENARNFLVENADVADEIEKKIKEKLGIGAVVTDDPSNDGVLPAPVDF

[9] = molecular target: T6, Replicative DNA helicase DnaB (Mycobacterium tuberculosis, UniProt P9WMR3); assay: DnaB intein splicing inhibitors, dose response, biochemical, cell-free fluorescence (AID 449749); assay type: functional
T6 sequence (P9WMR3 whole entry): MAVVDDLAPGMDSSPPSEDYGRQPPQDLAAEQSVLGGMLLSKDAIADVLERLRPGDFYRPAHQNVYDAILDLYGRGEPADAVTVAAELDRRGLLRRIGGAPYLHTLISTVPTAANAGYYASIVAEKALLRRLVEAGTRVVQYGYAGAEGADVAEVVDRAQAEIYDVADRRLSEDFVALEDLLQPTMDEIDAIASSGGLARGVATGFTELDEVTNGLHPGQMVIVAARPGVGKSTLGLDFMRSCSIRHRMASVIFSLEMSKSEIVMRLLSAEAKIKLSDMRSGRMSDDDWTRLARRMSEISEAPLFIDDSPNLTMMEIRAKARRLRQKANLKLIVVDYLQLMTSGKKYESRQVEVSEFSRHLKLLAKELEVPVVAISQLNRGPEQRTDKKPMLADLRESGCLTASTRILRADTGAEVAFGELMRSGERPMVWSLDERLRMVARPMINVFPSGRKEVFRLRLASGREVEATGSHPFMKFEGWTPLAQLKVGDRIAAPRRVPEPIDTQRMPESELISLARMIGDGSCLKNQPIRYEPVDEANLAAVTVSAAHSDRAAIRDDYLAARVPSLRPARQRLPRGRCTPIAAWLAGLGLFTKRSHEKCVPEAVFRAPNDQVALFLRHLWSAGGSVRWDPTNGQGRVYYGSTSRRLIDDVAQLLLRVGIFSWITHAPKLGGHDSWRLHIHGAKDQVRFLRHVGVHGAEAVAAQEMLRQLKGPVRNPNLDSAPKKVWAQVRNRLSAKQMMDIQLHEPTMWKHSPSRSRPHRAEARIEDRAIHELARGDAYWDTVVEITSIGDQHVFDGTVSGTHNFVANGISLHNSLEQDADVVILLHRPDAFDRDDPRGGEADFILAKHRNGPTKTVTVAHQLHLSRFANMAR

[10] = inhibitors of clade B AD8 Env fusion, dose response, cell-based, cherry-pick (AID 652062); assay type: functional;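 note: luciferase signal from cell-cell fusion driven by HIV-1 clade B AD8 Env; potency is for inhibitors of fusion seen as a drop in luminescence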
[11] = off-target signal loss in HeLa-CEM21 co-culture – HeLa F-luc CTL cells, cherry-picked, counter-screen for HIV-1 Env fusion inhibitor project, dose response (AID 652040); assay type: functional, cell-based;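 note: potency for signal decrease marking cytotoxic or nonspecific inhibition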
[12] = inhibitors of HIV Env-driven cell fusion, dose response, cherry-pick (AID 652057); assay type: functional, cell-based
[13] = cytotoxicity toward NIH3T3 fibroblasts, dose response, counter-screen, cell-based, ATP luminescence, mouse fibroblasts (AID 2010); assay type: functional;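 note: cells exposed to compound for about 90 hours before reading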
[14] = inhibitors of intracellular T. cruzi replication, confirmation, NIH3T3 host cells, beta-gal luminescence (AID 2044); assay type: functional, cell-based;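 note: intracellular parasites grown in NIH/3T3 mouse fibroblasts as host cells; luminescent beta-galactosidase reporter signal from transgenic T. cruzi replicating inside host cells; inhibitors lower the luminescence signal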
[15] = Luminescence Cell-Based Dose Retest to Confirm Inhibitors of Cancer Stem Cells. [Related pubchem assays (depositor defined):AID2717, AID2721]; assay type: functional; conditions: Homo sapiens

T1 sequence (P49327 whole entry, the tested form may be a part): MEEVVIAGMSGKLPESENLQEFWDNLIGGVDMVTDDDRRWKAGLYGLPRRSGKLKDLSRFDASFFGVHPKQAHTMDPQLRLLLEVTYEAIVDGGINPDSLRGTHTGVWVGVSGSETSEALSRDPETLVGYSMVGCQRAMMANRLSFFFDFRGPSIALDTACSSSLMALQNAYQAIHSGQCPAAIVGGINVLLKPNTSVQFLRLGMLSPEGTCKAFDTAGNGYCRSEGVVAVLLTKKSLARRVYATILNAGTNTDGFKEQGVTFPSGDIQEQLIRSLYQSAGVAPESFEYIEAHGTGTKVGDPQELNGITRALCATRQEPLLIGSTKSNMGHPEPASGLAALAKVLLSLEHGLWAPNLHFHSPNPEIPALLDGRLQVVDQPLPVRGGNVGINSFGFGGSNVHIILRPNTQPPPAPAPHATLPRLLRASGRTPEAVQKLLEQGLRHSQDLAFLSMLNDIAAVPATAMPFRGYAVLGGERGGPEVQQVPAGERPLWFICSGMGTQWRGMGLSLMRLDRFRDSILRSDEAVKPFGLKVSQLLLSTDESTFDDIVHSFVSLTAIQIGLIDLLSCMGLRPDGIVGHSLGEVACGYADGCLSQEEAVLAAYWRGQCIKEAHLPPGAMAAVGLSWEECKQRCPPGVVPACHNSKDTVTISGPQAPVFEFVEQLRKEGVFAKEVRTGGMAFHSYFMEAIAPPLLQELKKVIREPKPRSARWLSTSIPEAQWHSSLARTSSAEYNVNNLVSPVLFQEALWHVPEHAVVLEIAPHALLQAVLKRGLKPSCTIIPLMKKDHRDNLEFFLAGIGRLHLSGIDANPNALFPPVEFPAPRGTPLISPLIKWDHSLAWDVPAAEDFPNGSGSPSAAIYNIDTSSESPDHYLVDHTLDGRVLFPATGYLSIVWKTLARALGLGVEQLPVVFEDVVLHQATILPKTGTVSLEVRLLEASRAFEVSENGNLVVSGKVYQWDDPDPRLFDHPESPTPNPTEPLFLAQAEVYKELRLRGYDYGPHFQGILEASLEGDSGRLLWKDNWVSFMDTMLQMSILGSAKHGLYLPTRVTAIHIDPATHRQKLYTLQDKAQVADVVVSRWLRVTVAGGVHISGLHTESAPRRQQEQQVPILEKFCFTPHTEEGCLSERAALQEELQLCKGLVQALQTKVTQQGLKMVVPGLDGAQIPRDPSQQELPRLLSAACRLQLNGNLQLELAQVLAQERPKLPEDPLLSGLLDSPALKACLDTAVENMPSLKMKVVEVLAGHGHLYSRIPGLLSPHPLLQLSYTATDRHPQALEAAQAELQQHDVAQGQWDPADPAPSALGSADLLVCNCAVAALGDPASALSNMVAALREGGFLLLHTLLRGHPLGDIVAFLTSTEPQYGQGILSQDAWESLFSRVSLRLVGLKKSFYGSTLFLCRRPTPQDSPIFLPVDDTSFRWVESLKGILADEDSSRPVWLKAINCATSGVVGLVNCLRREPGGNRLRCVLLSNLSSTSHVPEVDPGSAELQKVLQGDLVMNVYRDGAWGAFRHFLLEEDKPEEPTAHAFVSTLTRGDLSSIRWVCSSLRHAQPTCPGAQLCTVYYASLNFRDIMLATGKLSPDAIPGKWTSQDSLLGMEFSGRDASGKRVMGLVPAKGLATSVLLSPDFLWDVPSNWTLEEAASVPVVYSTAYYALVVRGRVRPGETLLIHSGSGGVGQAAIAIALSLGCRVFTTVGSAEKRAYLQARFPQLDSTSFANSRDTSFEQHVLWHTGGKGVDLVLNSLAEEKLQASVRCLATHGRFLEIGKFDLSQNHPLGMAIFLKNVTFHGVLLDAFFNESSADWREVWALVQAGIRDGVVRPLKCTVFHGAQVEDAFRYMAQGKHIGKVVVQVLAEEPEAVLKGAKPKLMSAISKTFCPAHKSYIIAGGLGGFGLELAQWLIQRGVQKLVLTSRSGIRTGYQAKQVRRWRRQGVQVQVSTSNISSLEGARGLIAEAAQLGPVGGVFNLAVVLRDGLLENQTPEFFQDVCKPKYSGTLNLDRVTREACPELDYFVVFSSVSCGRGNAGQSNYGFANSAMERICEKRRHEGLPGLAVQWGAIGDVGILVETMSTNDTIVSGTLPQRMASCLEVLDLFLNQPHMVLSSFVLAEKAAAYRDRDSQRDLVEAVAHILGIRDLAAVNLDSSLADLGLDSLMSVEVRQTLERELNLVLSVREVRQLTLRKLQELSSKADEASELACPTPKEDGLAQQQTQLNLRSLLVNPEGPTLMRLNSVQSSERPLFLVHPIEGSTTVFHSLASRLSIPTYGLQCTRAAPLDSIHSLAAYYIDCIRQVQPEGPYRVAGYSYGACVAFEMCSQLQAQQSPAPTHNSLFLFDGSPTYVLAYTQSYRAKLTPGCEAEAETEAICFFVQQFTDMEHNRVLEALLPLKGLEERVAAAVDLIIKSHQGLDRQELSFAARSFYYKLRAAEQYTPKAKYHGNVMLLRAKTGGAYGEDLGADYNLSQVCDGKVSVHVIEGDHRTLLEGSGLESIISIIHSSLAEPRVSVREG

## COc1cc(OC)c(C2=NOC(C(=O)N3CCc4ccccc4C3)C2)cc1Cl (stereo not drawn)
Fatty acid synthase [1]
  IC50: 3.02 µM (active)
Fatty acid synthase [2]
  IC50: 2.28 µM (active)

## O=C(NCc1ccccc1)/C(=C/c1cccc([N+](=O)[O-])c1)NC(=O)c1ccco1
Fatty acid synthase [1]
  IC50: 4.49 µM (active)
Fatty acid synthase [2]
  IC50: 4.38 µM (active)

## NC(=O)c1nsc(C(=O)N(c2ccccc2F)C(C(=O)NCc2ccc(F)cc2)c2ccc(O)cc2)c1N (stereo not drawn)
[3]
  IC50: > 20 µM (inactive)
H9c2
  IC50: 29.8 µM (active)

## CCOc1ccc(Nc2nc(NCC3CCCO3)c3ccccc3n2)cc1 (stereo not drawn)
[4]
  EC50: 2.32 µM (active)
[3]
  IC50: > 20 µM (inactive)
[5]
  EC50: 33.5 µM (inconclusive)

## COc1c(O)cccc1[C@@H](O)C1CCN(CCc2ccc(F)cc2)CC1
[6]
  EC50: 13.8 µM (active)
[7]
  EC50: 14.1 µM (inconclusive)

## Cc1ccc(N2C(=O)C3C4C=CC(CN=C(S)N5CCN(c6ccccn6)CC5)(O4)C3C2=O)cc1 (stereo not drawn)
[8]
  AC50: 7.77 µM (active)

## CC(=O)N1CCN(S(=O)(=O)c2cccc(C(=O)OCc3ccc(C(C)(C)C)cc3)c2)CC1
Fatty acid synthase [1]
  IC50: 0.376 µM (active)
Fatty acid synthase [2]
  IC50: 0.205 µM (active)

## CCc1ccc(C(=O)NNC(=O)c2ccc(=O)n(C)n2)cc1
[6]
  EC50: > 300 µM (not active)
[7]
  EC50: 6.42 µM (active)

## O=C1CC(N2CCCN(C3CC(=O)N(c4ccc(F)cc4)C3=O)CC2)C(=O)N1c1ccc(F)cc1 (stereo not drawn)
[8]
  AC50: 4.32 µM (active)

## Cc1ccccc1C(CC(=O)c1cccs1)C(C#N)C#N (stereo not drawn)
Vero
  CC50: 17 µM (active)
Protein RecA
  EC50: 1.17 µM (active)
[9]
  AC50: > 380 µM (inconclusive)

## CCCOc1ccc(C(F)(F)F)cc1NC(=O)CCc1c(C)noc1C
[10]
  AC50: 51.4 µM (active)
[11]
  AC50: 24.2 µM (active)
[12]
  AC50: 11.6 µM (active)

## COc1ccc(/C=C2/Sc3ccc(C(=O)NCCN4CCCCCC4)cc3NC2=O)cc1
[3]
  IC50: > 20 µM (inactive)

## CS(=O)(=O)N1CCc2cc(-c3csc(NC(=O)Cc4cccs4)n3)ccc21
Fatty acid synthase [1]
  IC50: 6.53 µM (active)
[10]
  AC50: 9.65 µM (active)
[13]
  EC50: > 60 µM (not active)
[11]
  AC50: 27.1 µM (active)
[12]
  AC50: 27.1 µM (active)
Fatty acid synthase [2]
  IC50: 9.27 µM (active)
[14]
  EC50: 0.586 µM (active)

## COc1ccc2[nH]c(C(=O)N3CCC(CO)(Cc4cccc(C(F)(F)F)c4)CC3)c(C)c2c1
Vero
  CC50: > 25 µM (active)

## COc1ccccc1-c1sc2cc3c(cc2c1C#Cc1cncn1C)OCO3
[3]
  IC50: > 20 µM (inactive)
[15]
  AC50: 4.18 µM (active)

## CN1CCN(CCCNC(=O)c2cn(C3CCCCC3)c(=O)c3c2c2ccccc2n3C)CC1
[3]
  IC50: > 20 µM (inactive)

## CCc1ccc(S(=O)(=O)c2nnn3c2nc(NCCNC(C)=O)c2ccccc23)cc1
Fatty acid synthase [1]
  IC50: 3.84 µM (active)
Fatty acid synthase [2]
  IC50: 3.5 µM (active)

## O=C(c1ccccc1F)N1CCN(Cc2cccc(Cl)c2)CC1
[10]
  AC50: 3.83 µM (active)
[11]
  AC50: > 70 µM (inactive)

## Cc1ccc(C(=O)CSc2nc3c(=O)n(C)c(=O)n(C)c3[nH]2)cc1
[6]
  EC50: > 300 µM (not active)
[7]
  EC50: > 300 µM (not active)

## O=C(COc1ccc([N+](=O)[O-])cc1)Nc1ccc2c(c1)CCC2
Fatty acid synthase [1]
  IC50: 14.6 µM (active)
Fatty acid synthase [2]
  IC50: 6.78 µM (active)

## O=C(N/N=C/c1ccc(-c2cccc([N+](=O)[O-])c2)o1)c1ccc([N+](=O)[O-])cc1
H9c2
  IC50: > 79 µM (inactive)
[6]
  EC50: > 300 µM (not active)
[7]
  EC50: > 300 µM (not active)

## CCN(CC)C(=O)C1CCCN(c2ccc([N+](=O)[O-])cc2/C=N/NC(=O)c2cccc(O)c2)C1 (stereo not drawn)
Fatty acid synthase [1]
  IC50: 1.93 µM (active)
Fatty acid synthase [2]
  IC50: 1.57 µM (active)

## C/C(=N\Nc1ncc(Cl)cc1Cl)c1ccc(OC(F)F)cc1
Fatty acid synthase [1]
  IC50: 16.1 µM (active)
Fatty acid synthase [2]
  IC50: 14.2 µM (active)

## Cc1cccc(C(=O)Oc2ccc(/C=N/NC(=O)Cc3ccc([N+](=O)[O-])cc3)cc2)c1
[3]
  IC50: > 20 µM (inactive)

## O=C(O)CCC(=O)NNc1nc(-c2ccccc2)c2cc(Cl)ccc2n1
[6]
  EC50: > 300 µM (not active)
[7]
  EC50: 9.18 µM (active)
